Test results from article PMC12396409, “Screening and hit evaluation of a microbial metabolite library against the pathogenic Plasmodium falciparum and Toxoplasma gondii parasites” (International Journal for Parasitology: Drugs and Drug …, 2025).
Like-named read-outs stand apart in the source and are kept apart here. Where a SMILES comes first, the peptide text is derived from it. Bridges are numbered along the chain shown (N, C = ends). [ ]: non-standard residue; d: D form. The star is where a group is joined. ξ: configuration not given here. ξNMePhe(4-NMe2) = CNC(Cc1ccc(N(C)C)cc1)C(=O)O; Picolinoyl(3-OH) = O=C(c1ncccc1O)*; ξPip(4-oxo) = O=C1CCNC(C(=O)O)C1; Phg = N[CH](C(=O)O)c1ccccc1; Abu = CC[CH](N)C(=O)O

How the values were obtained:
[1] = system: T. gondii RH strain (RH-Tub-eYFP) tachyzoites; experiment: microbe, parasite or virus in culture; assay type: cell-based, Toxoplasma gondii; settings: 72 h; for percent parasite growth at 2 µg/mL: Toxoplasma gondii
[2] = system: P. falciparum 3D7 parasites; experiment: P. falciparum growth inhibition assay, 2-cycle (120 h treatment), delayed-death screen and dose-response; assay type: cell-based, Plasmodium falciparum; settings: for activity at 2 µg/mL: Plasmodium falciparum, 3D7
[3] = system: P. falciparum 3D7 parasites; experiment: P. falciparum growth inhibition assay, 1-cycle (72 h treatment), SYBR DNA staining (library screen at 2 μg/mL and dose-response); assay type: cell-based, Plasmodium falciparum; settings: for activity at 2 µg/mL: Plasmodium falciparum, 3D7
[4] = T. gondii, screen at 2 μg/mL, replicate 1
[5] = T. gondii, screen at 2 μg/mL, replicate 2
[6] = P. falciparum, 120 h, screen at 2 μg/mL, replicate 1
[7] = P. falciparum, 120 h, screen at 2 μg/mL, replicate 2
[8] = P. falciparum, 72 h, screen at 2 μg/mL, replicate 1
[9] = P. falciparum, 72 h, screen at 2 μg/mL, replicate 2

| Compound | Tg_72h_%Growth_Rep1 [1, 4] [%] | Tg_72h_%Growth_Rep2 [1, 5] [%] | Pf_120h_%Growth_Rep1 [2, 6] [%] | Pf_120h_%Growth_Rep2 [2, 7] [%] | Pf_72h_%Growth_Rep1 [3, 8] [%] | Pf_72h_%Growth_Rep2 [3, 9] [%] | also measured |
| --- | --- | --- | --- | --- | --- | --- | --- |
| CC[C@H]1OC(=O)[C@H](C)[C@@H](O[C@H]2C[C@@](C)(OC)[C@@H](O)[C@H](C)O2)[C@H](C)[C@@H](O[C@@H]2O[C@H](C)C[C@H](N(C)C)[C@H]2O)[C@](C)(O)C[C@@H](C)C(=O)[C@H](C)[C@H]2OC(=O)O[C@@]21C [Davercin, reference compound] | 45.64 | 28.61 | 17.41 | 8.68 | 70.33 | 55.54 | 2) Growth (%) at 120 h ([2]; P. falciparum, 2 μg/mL, 120 h): 13.05%; 3) Fold change (72 h/120 h) ([2]; P. falciparum, growth at 72 h / growth at 120 h, 2 μg/mL): 4.8; 1) Growth (%) at 72 h ([3]; P. falciparum, 2 μg/mL, 72 h): 62.94% |
| CC(C)[C@@H]1NC(=O)[C@H](C)OC(=O)[C@@H](C(C)C)NC(=O)[C@@H](C(C)C)OC(=O)[C@H](C(C)C)NC(=O)[C@H](C)OC(=O)[C@@H](C(C)C)NC(=O)[C@@H](C(C)C)OC(=O)[C@H](C(C)C)NC(=O)[C@H](C)OC(=O)[C@@H](C(C)C)NC(=O)[C@@H](C(C)C)OC1=O [Valinomycin] |  |  |  |  |  |  | percent parasite growth at 2 µg/mL ([1]; T. gondii, screen at 2 μg/mL, replicate 1, read-out: Tg_72h_%Growth_Rep1): 122%; percent parasite growth at 2 µg/mL ([1]; T. gondii, screen at 2 μg/mL, replicate 2, read-out: Tg_72h_%Growth_Rep2): 85.6%; activity at 2 µg/mL ([2]; P. falciparum, 120 h, screen at 2 μg/mL, replicate 1, read-out: Pf_120h_%Growth_Rep1): 90.6%; activity at 2 µg/mL ([2]; P. falciparum, 120 h, screen at 2 μg/mL, replicate 2, read-out: Pf_120h_%Growth_Rep2): 101%; activity at 2 µg/mL ([3]; P. falciparum, 72 h, screen at 2 μg/mL, replicate 1, read-out: Pf_72h_%Growth_Rep1): 81%; activity at 2 µg/mL ([3]; P. falciparum, 72 h, screen at 2 μg/mL, replicate 2, read-out: Pf_72h_%Growth_Rep2): 123% |
| CCC1NC(=O)C(NC(=O)c2ncccc2O)C(C)OC(=O)C(c2ccccc2)NC(=O)C2CC(=O)CCN2C(=O)C(Cc2ccc(N(C)C)cc2)N(C)C(=O)C2CCCN2C1=O (centres unmarked) [Virginiamycin B] ({Picolinoyl(3-OH)}-T[Abu]P[ξNMePhe(4-NMe2)][ξPip(4-oxo)][Phg]; ester 1-C; configuration not given here) | 93.06 | 114.46 | 152.31 | 75.63 | 73.90 | 82.34 |  |
| CC[C@H]1CCC[C@H](O)[C@@H](C)C(=O)C2=C[C@H]3[C@@H]4C[C@H](O)C[C@H]4CC[C@H]3[C@@H]2CC(=O)O1 [Dihydrospinosyn A aglycone] |  |  |  |  |  |  | Tg_72h_%Growth_Rep1 ([1]; library screen at 2 μg/mL, % growth, replicate 1): 141.87%; Tg_72h_%Growth_Rep2 ([1]; library screen at 2 μg/mL, % growth, replicate 2): 82.63%; Pf_120h_%Growth_Rep1 ([2]; library screen at 2 μg/mL, 120 h, % growth, replicate 1): 88.50%; Pf_120h_%Growth_Rep2 ([2]; library screen at 2 μg/mL, 120 h, % growth, replicate 2): 102.89%; IC50 ([3]; 3D7, 72 h treatment, mean ± S.D., n ≥ 3, read-out: IC50 (μM), P. falciparum): > 1 µM; Screen (P. falciparum) ([3]; library screen at 2 μg/mL, 3D7, 72 h, DD from the 120 h timepoint): I; Pf_72h_%Growth_Rep1 ([3]; library screen at 2 μg/mL, 72 h, % growth, replicate 1): 96.92%; Pf_72h_%Growth_Rep2 ([3]; library screen at 2 μg/mL, 72 h, % growth, replicate 2): 105.46% |
| CC(=O)C1=C(O)C=C2Oc3c(C(N)=O)c(O)cc(O)c3[C@]2(C)C1=O [Cercosporamide] | 84.28 | 89.90 | 127.36 | 89.41 | 93.73 | 83.00 |  |
| CCC(=O)[C@@H](C)[C@@H](O)[C@H](C)C[C@@H](C)[C@H]1OC(=O)C[C@@]2(O)CC=C(C)[C@H](O2)/C(C)=C/CCC[C@@H](O[C@H]2C[C@@H](OC(N)=O)[C@H](O)[C@@H](C)O2)/C=C/[C@H](C)C[C@H]1C [Venturicidin A] | -1.24 | 0.71 | 19.97 | -12.87 | 8.64 | 1.38 |  |
| CCC(C)C1OC2(CCC1C)CC1CC(CC=C(C)C(OC3CC(OC)C(OC4CC(OC)C(O)C(C)O4)C(C)O3)C(C)C=CC=C3COC4C(O)C(C)C=C(C(=O)O1)C34O)O2 (centres unmarked) [BIA-I1581] |  |  |  |  |  |  | Tg_72h_%Growth_Rep1 ([1]; T. gondii RH, library screen at 2 μg/mL, % growth, replicate 1): 33.19%; Tg_72h_%Growth_Rep2 ([1]; T. gondii RH, library screen at 2 μg/mL, % growth, replicate 2): 43.03%; Pf_120h_%Growth_Rep1 ([2]; P. falciparum 3D7, 120 h, library screen at 2 μg/mL, % growth, replicate 1): 16.87%; Pf_120h_%Growth_Rep2 ([2]; P. falciparum 3D7, 120 h, library screen at 2 μg/mL, % growth, replicate 2): 11.19%; Pf_72h_%Growth_Rep1 ([3]; P. falciparum 3D7, 72 h, library screen at 2 μg/mL, % growth, replicate 1): 5.59%; Pf_72h_%Growth_Rep2 ([3]; P. falciparum 3D7, 72 h, library screen at 2 μg/mL, % growth, replicate 2): 2.07% |
| CN[C@@H]1C[C@H]2O[C@@](C)([C@@H]1OC)n1c3ccccc3c3c4c(c5c6ccccc6n2c5c31)C(=O)N[C@H]4O [UCN-02] | 2.39 | 1.72 | 30.31 | 6.39 | 0.18 | -6.73 |  |
